One assay concerns the target T1, DNA polymerase α (Bos taurus, UniProt A0AAA9TD94).
T1 sequence (A0AAA9TD94 1-1441): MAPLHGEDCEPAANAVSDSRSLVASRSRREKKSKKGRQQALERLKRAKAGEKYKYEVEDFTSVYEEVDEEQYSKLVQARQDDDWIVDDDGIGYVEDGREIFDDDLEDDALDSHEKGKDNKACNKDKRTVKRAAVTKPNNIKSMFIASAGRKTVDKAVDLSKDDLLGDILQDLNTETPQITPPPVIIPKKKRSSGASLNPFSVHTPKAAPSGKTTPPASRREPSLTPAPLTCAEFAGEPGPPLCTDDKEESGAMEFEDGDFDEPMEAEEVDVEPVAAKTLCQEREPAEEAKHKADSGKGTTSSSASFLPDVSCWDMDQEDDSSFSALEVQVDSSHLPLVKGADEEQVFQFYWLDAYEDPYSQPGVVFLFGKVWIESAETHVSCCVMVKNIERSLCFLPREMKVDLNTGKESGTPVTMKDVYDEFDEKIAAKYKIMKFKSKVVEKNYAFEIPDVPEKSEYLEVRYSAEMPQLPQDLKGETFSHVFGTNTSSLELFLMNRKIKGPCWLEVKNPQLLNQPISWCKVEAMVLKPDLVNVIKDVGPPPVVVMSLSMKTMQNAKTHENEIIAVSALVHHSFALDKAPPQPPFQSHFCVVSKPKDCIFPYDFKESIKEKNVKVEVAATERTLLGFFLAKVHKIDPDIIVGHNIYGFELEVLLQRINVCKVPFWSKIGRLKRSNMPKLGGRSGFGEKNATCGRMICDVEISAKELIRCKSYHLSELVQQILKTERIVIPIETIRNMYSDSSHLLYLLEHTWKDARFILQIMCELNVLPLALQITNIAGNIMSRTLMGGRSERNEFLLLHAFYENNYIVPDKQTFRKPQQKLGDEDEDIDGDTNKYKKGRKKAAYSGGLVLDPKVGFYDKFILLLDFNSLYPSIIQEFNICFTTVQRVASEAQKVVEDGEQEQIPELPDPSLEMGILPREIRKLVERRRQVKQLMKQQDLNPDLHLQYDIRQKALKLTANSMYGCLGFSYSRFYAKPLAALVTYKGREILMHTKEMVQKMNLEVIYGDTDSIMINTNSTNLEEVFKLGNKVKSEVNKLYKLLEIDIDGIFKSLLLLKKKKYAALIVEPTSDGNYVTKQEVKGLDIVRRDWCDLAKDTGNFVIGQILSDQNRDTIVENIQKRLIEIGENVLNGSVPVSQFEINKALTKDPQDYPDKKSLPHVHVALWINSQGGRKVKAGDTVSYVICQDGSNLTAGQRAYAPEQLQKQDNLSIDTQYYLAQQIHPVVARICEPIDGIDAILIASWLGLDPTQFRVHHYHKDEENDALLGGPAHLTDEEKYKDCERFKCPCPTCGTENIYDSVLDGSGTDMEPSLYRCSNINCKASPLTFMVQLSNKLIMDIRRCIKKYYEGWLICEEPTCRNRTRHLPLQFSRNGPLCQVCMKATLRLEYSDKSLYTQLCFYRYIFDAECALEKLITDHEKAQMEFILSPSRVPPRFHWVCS
The assay is described as follows: DNA polymerase assay, pol. α. It counts as biochemical, calf. Particulars: Table I; for MIC Pol. α: Minimum inhibitory concentration: dose that resulted in inhibition of 80% or more of the activity; for IC50: 50%-inhibitory concentration.

For a further assay, the target named is DNA polymerase β (Rattus norvegicus, UniProt P06766). The assay is described as follows: DNA polymerase assay, pol. β. It counts as biochemical. The following applies: for MIC Pol. β: Minimum inhibitory concentration: dose that resulted in inhibition of 80% or more of the activity.
The mark [1] stands for this setting: read-out: IC50 Pol. β, 50%-inhibitory concentration, Table I.

Values after ≈ are worked out from the molar mass of the structure shown. Values joined by “and” are separate entries in the source; they are usually repeats but may differ in a detail not shown here. Equal entries are not always repeated. Where two headings read alike, the source gives them in different places. Where only a bound is given, the exact number is not on record here.

A word on the IC50: it is the point on the concentration scale where inhibition reaches its midpoint.

Molecule `CCCCCCCCCCCCCC(=O)OCC(CO)OC(=O)CCCCCCCCCCCCC` (stereo not drawn) yielded an MIC Pol. α at DNA polymerase α greater than 1000 µM. Further, the results for the IC50 at DNA polymerase α (read-out: IC50 Pol. α) and at DNA polymerase β (setting [1]) were 550 µM and greater than 1000 µM, respectively.
In turn, `CCCCCCCCCCCCCCCC(=O)OCC(CO)OC(=O)CCCCCCCCCCCCCCC` (stereo not drawn) had an MIC Pol. α on DNA polymerase α greater than 1000 µM. The figures for the IC50 at DNA polymerase α (read-out: IC50 Pol. α) and at DNA polymerase β (setting [1]) were 470 µM and greater than 1000 µM, respectively.
Take `CCCCCCCCCCCCCC(=O)OC[C@H](CO[C@H]1O[C@H](CS(=O)(=O)O)[C@@H](O)[C@H](O)[C@H]1O)OC(=O)CCCCCCCCCCCCC` [C14--SQDG]: the MIC Pol. α at DNA polymerase α is 5.3 µM and 5.2 µM. The IC50 at DNA polymerase α (read-out: IC50 Pol. α) is 1.8 µM and 1.9 µM; on DNA polymerase β (setting [1]), 23 µM and 20 µM. On DNA polymerase β (Table I), the MIC Pol. β was 37 µM and 40 µM.
On to `CCCCCCCCCCCCCCCC(=O)OC[C@H](CO[C@H]1O[C@H](CS(=O)(=O)O)[C@@H](O)[C@H](O)[C@H]1O)OC(=O)CCCCCCCCCCCCCCC` [C16--SQDG], for which the MIC Pol. α at DNA polymerase α is 3.4 µM and 3.6 µM. For the same molecule, the MIC Pol. β at DNA polymerase β (Table I) is 45 µM and 46 µM. At DNA polymerase β (setting [1]), the IC50 was determined as 25 µM.
Consider `CCCCCCCCCCCCCCCC(=O)OC[C@@H](O)CO[C@H]1O[C@H](CS(=O)(=O)O)[C@@H](O)[C@H](O)[C@H]1O` [C16--SQMG], for which the MIC Pol. α at DNA polymerase α is 9.1 µM and 14 µM. Further, the IC50 at DNA polymerase α (read-out: IC50 Pol. α) was 4 µM and 5.9 µM; at DNA polymerase β (setting [1]), 34 µM and 36 µM. The MIC Pol. β on DNA polymerase β (Table I) is 43 µM and 46 µM.
On to `O=S(=O)(O)C[C@@H]1OC(OCC(O)CO)[C@@H](O)[C@H](O)[C@@H]1O` (stereo partly drawn) [I&II&III + Fucose + -], for which the IC50 at DNA polymerase α (read-out: IC50 Pol. α) and on DNA polymerase β (setting [1]) was greater than 1000 µM each time.
For `O=S(=O)(O)C[C@H]1O[C@H](OCC(O)CO)[C@H](O)[C@@H](O)[C@@H]1O` (stereo partly drawn) [I&II&III + Quinovose + -], the IC50 at DNA polymerase α (read-out: IC50 Pol. α) and on DNA polymerase β (setting [1]) was greater than 1000 µM in each case.
With `C[C@H](O)[C@@H](O)[C@@H](O)[C@H](O)C=O` [II - Fucose - -, Fucose], the IC50 on DNA polymerase α (IC50 Pol. α) and on DNA polymerase β was greater than 1000 µM each time.
On to `C[C@H]1OC(O)[C@H](O)[C@@H](O)[C@@H]1O` (stereo partly drawn) [II - Quinovose - -, Quinovose], for which the IC50 against DNA polymerase α (IC50 Pol. α) and on DNA polymerase β was greater than 1000 µM each time.
Turning to `C[C@@H]1OC(O)[C@H](O)[C@H](O)[C@H]1O` (stereo partly drawn) [II - Rhamnose - -, Rhamnose], the IC50 on DNA polymerase α (read-out: IC50 Pol. α) and at DNA polymerase β (setting [1]) was greater than 1000 µM each time.
Consider `C[C@@H]1OC(OCC(O)CO)[C@@H](O)[C@H](O)[C@@H]1O` (stereo partly drawn) [II&III - Fucose + -], for which the 50% inhibitory concentration (IC50) on DNA polymerase α (read-out: IC50 Pol. α) and on DNA polymerase β (setting [1]) was greater than 1000 µM each time.
For `C[C@H]1OC(OCC(O)CO)[C@H](O)[C@@H](O)[C@@H]1O` (stereo partly drawn) [II&III - Quinovose + -], the IC50 at DNA polymerase α (read-out: IC50 Pol. α) and on DNA polymerase β (setting [1]) was greater than 1000 µM throughout.
`C[C@@H]1OC(OCC(O)CO)[C@H](O)[C@H](O)[C@H]1O` (stereo partly drawn) [II&III - Rhamnose + -]: the IC50 at DNA polymerase α (read-out: IC50 Pol. α) and at DNA polymerase β (setting [1]) was greater than 1000 µM in each case.
For the molecule `CCCCCCCCCCCCCC(=O)OCC(O)CO` (stereo not drawn) [III&IV - - + Myristic acid (14:0)/H], the MIC Pol. α at DNA polymerase α is greater than 1000 µM. For the same molecule, the values for the 50% inhibitory concentration (IC50) on DNA polymerase α (read-out: IC50 Pol. α) and at DNA polymerase β (setting [1]) were 750 µM and greater than 1000 µM, respectively.
Consider `CCCCCCCCCCCCCCCCCC(=O)OCC(O)CO` (stereo not drawn) [III&IV - - + Stearic acid (18:0)/H], for which the MIC Pol. α on DNA polymerase α was greater than 1000 µM. Also, the figures for the IC50 at DNA polymerase α (read-out: IC50 Pol. α) and at DNA polymerase β (setting [1]) were 650 µM and greater than 1000 µM, respectively.
Take `CCCCCCCCCCCCCC(=O)O` [Myristic acid (14:0), Myristic acid, reference compound]: the 50% inhibitory concentration (IC50) was 95 µM against DNA polymerase α (IC50 Pol. α) and 440 µM against DNA polymerase β. The MIC Pol. α on DNA polymerase α is 180 µM (≈ 41.1 µg/mL). The same molecule showed an MIC Pol. β at DNA polymerase β (Table I) greater than 1000 µM.
For the molecule `CCCCCCCCCCCCCCCC(=O)O` [Palmitic acid (16:0), Palmitic acid, reference compound], the half-inhibitory concentration (IC50) was determined as 42 µM on DNA polymerase α (IC50 Pol. α) and 290 µM on DNA polymerase β. At DNA polymerase α, the MIC Pol. α is 100 µM (≈ 25.6 µg/mL). Besides, the MIC Pol. β on DNA polymerase β (Table I) is 500 µM (≈ 128 µg/mL).
Regarding `CCCCCCCCCCCCCCCCCC(=O)O` [Stearic acid (18:0), Stearic acid, reference compound], the IC50 was 12 µM and 8 µM against DNA polymerase α (IC50 Pol. α); 130 µM against DNA polymerase β. Besides, the MIC Pol. α on DNA polymerase α was determined as 35 µM (≈ 9.96 µg/mL). Further, the MIC Pol. β at DNA polymerase β (Table I) amounted to 250 µM (≈ 71.1 µg/mL).

Values taken from publication PMC5926251 (Japanese Journal of Cancer Research : Gann, 2000).
